Molecular target: T1, GPR158 (Homo sapiens, UniProt Q5T848)
T1 sequence (Q5T848 24-1215): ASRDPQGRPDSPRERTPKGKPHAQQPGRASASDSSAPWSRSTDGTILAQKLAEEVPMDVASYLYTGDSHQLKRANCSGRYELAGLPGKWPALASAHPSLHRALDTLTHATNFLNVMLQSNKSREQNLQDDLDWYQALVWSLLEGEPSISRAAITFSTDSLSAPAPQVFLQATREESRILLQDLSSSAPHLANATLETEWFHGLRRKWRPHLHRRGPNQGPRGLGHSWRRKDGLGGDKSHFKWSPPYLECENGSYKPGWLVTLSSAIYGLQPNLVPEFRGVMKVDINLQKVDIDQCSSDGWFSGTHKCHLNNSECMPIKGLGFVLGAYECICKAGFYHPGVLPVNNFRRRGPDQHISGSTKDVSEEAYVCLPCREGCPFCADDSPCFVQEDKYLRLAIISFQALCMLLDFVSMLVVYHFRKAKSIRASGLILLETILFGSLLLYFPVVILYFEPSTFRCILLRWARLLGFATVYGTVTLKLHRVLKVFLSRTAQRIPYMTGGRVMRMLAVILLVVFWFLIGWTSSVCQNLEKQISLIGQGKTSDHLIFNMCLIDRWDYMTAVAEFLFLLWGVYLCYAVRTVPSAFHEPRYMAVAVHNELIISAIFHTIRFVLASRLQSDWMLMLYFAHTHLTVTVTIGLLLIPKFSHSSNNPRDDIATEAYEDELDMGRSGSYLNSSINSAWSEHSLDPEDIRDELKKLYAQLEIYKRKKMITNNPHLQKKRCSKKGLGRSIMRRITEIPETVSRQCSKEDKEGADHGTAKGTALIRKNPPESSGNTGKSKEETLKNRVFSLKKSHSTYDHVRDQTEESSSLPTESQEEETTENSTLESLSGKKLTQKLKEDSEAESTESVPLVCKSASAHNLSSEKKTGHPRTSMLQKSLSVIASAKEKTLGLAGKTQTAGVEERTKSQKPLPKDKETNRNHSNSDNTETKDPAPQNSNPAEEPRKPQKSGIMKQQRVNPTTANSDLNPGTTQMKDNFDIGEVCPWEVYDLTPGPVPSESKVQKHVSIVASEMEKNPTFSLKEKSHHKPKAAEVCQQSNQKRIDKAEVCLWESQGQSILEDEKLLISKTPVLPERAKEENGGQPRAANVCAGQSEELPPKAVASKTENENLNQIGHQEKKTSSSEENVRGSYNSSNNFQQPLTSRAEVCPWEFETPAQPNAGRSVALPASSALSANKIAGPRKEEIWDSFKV
Test: BRET cAMP assay in U87 glioblastoma cells expressing GPR158
Type: cell-based
Parameters: expressed in transfected cells; host or cells: HEK293FT
Conditions: glycine 100 μM
Description: FIGS. 1A-1E Identification of glycine as GPR158 ligand. A) 3D model of the GPR158 cache domain with putative ligand-binding pocket is shown as surface presentation with cartoon representation at the background. B) Schematic of the screening assay design. C) Quantification of cAMP changes mediated by GPR158. BRET signal in response to amino acid application detected in control cells is subtracted from the signal from cells expressing GPR158 and the difference is plotted. Dotted lines denote 2×SD confidence interval. Data shown represent mean±s.e.m. determined from 3 independent experiments performed in triplicate. D) Time course of cAMP change induced with 10 μM of forskolin in glioblastoma cells (U87 MG) in response to glycine (100 μM) application (arrow) in empty cells (control) or cells expressing indicated components. E) Quantification of maximal amplitudes of responses to glycine in panel d. Data shown represent mean±s.e.m. determined from 3 independent experiments performed in triplicate. **p<0.01 (one-way ANOVA).
To study this effect in more detail the inventors analyzed the individual responses to glycine in a kinetic mode.
HEK293FT cells were seeded in a white flat-bottom 96 well plate (Greiner Bio-One) at 50,000 cells per well and transiently transfected using Metafectene Pro with the manufacturer instruction. […] BRET measurements were made in living cells using a microplate reader (PHERAstar FSX; BMG Labtech) equipped with two emission photomultiplier tubes. […]
HEK293FT cells or U87 MG cells (ATCC HTB-14) when indicated were co-transfected with the CAMP sensor Camyel and with untagged receptors (respectively: empty vector, GPR158). BRET ratio was determined by calculating the ratio of the light emitted by RLuc (475 nm with a 30 nm band path width) over the light emitted by the Venus (535 nm with a 30 nm band path width) in order to measure an increase of the signal when cAMP increase. ΔBRET was calculated by subtracting the ctrl cell BRET result from GPR158 expressing cells BRET result in order to get specifically the signal from GPR158 removing all the non-specific signal. […]

cAMP change in cells lacking GPR158 (U87 cells without GPR158): No glycine-induced changes in cAMP
cAMP change with co-expressed RGS7/Gβ5 (U87 cells, GPR158 + RGS7/Gβ5): further potentiated
cAMP change (U87 glioblastoma cells expressing GPR158, forskolin 10 μM): resulted in cAMP decrease
Structure (SMILES): NCC(=O)O [glycine]
